Common to all, as to assay type: cell-based
For one test, the system named is MM1S cells. Description: MTT cell proliferation assay, MM1S cells. Conditions: Homo sapiens, MM1.S, MM1S multiple myeloma cells, approximately 64-72 hours, 1 nM to 30 μM. Here is the method:
(§1) The MTT cell proliferation assay was used to study the cytotoxic properties of the compounds. The assay was performed according to the method described by Roche Molecular Biochemicals, with minor modifications. The assay is based on the cleavage of the tetrazolium salt, MTT, in the presence of an electron-coupling reagent. The water-insoluble formazan salt produced must be solubilized in an additional step. Cells grown in a 96-well tissue culture plate were incubated with the MTT solution for approximately 4 hours. After this incubation period, a water-insoluble formazan dye formed. After solubilization, the formazan dye was quantitated using a scanning multi-well spectrophotometer (ELISA reader). […] The cells were seeded at 5,000-10,000 cells in each well of 96-well plate in 100 μL of fresh culture medium and were allowed to attach overnight. The stock solutions of the compounds were diluted in 100 μL cell culture medium to obtain eight concentrations of each test compound, ranging from 1 nM to 30 μM. […] All optical densities were measured at 490 nm using a Vmax Kinetic Microplate Reader (Molecular Devices). In most cases, the assay was performed in duplicate and the results were presented as a mean percent inhibition to the negative control±SE. The following formula was used to calculate the percent of inhibition: Inhibition (%)=(1−(ODo/OD))×100.
(§2) The compounds were tested against Z138, MM1S and 3T3 cells. The Z138 cell line is a mature B-cell acute lymphoblastic leukemia cell line derived from a patient with chronic lymphocytic leukemia. The MM1S cell line was established from the peripheral blood of a human multiple myeloma patient. 3T3 cells are standard fibroblast cells; they were originally isolated from Swiss mouse embryo tissue.

The subject of a further test is Z138 cells. The test can be described thus: MTT cell proliferation assay, Z138 cells. The settings on record: Homo sapiens, Z-138, approximately 64-72 hours, 1 nM to 30 μM. On the procedure:
as §1, §2

The subject of another test is 3T3 cells. The test can be described thus: MTT cell proliferation assay, 3T3 cells. The settings on record: Mus musculus, NIH3T3, 3T3 fibroblast cells, approximately 64-72 hours, 1 nM to 30 μM. Here is the method: as §1, §2

With `NC(=O)/C(=C/c1ccnc(-c2cc(C(F)(F)F)cc(C(F)(F)F)c2)n1)c1ccc(F)cc1F` [Compound 132, (E)-3-(2-(3,5-bis(trifluoromethyl)phenyl)pyrimidin-4-yl)-2-(2,4-difluorophenyl)acrylamide], the half-maximal inhibitory concentration (IC50) in the test on MM1S cells, in the test on Z138 cells and with 3T3 cells was > 30 µM each time.

On to `NC(=O)/C(=C/c1ccnc(-c2cc(C(F)(F)F)cc(C(F)(F)F)c2)n1)c1ccc(F)cc1` [Compound 163, (E)-3-(2-(3,5-bis(trifluoromethyl)phenyl)pyrimidin-4-yl)-2-(4-fluorophenyl)acrylamide], for which the IC50 in the test with MM1S cells, with Z138 cells and with 3T3 cells was > 30 µM each time.

For `NC(=O)/C(=C/c1ccnc(-c2cc(C(F)(F)F)cc(C(F)(F)F)c2)n1)c1ccc(S(=O)(=O)N2CC(F)C2)cc1` [Compound 126, (E)-3-(2-(3,5-bis(trifluoromethyl)phenyl)pyrimidin-4-yl)-2-(4-((3-fluoroazetidin-1-yl)sulfonyl)phenyl)acrylamide], the IC50 in the test on MM1S cells, in the test on Z138 cells and in the test on 3T3 cells was > 30 µM throughout.

`NC(=O)/C(=C/c1ccnc(-c2cc(C(F)(F)F)cc(C(F)(F)F)c2)n1)c1cncc(Cl)c1` [Compound 147, (E)-3-(2-(3,5-bis(trifluoromethyl)phenyl)pyrimidin-4-yl)-2-(5-chloropyridin-3-yl)acrylamide]: the results for the half-inhibitory concentration (IC50) in the test on MM1S cells, in the test with Z138 cells and in the test with 3T3 cells were < 0.1 µM, 0.1 to 5 µM and > 30 µM, respectively.

Consider `NC(=O)/C(=C/c1nccc(-c2cc(C(F)(F)F)cc(C(F)(F)F)c2)n1)c1cncnc1` [Compound 113, (E)-3-(4-(3,5-bis(trifluoromethyl)phenyl)pyrimidin-2-yl)-2-(pyrimidin-5-yl)acrylamide], for which the IC50 with MM1S cells, in the test with Z138 cells and in the test with 3T3 cells was > 30 µM each time.

As for `NC(=O)/C(=C/c1ccnc(-c2cc(C(F)(F)F)cc(C(F)(F)F)c2)n1)c1cccc(F)n1` [Compound 150, (E)-3-(2-(3,5-bis(trifluoromethyl)phenyl)pyrimidin-4-yl)-2-(6-fluoropyridin-2-yl)acrylamide], the results for the concentration for half-maximal inhibition (IC50) in the test with MM1S cells, in the test on Z138 cells and with 3T3 cells were 0.1 to 5 µM, 0.1 to 5 µM and > 30 µM, respectively.

`NC(=O)/C(=C/c1ccnc(-c2cc(C(F)(F)F)cc(C(F)(F)F)c2)n1)c1cccc(S(=O)(=O)N2CCC(C(F)(F)F)CC2)c1` [Compound 160, (E)-3-(2-(3,5-bis(trifluoromethyl)phenyl)pyrimidin-4-yl)-2-(3-((4-(trifluoromethyl)piperidin-1-yl)sulfonyl)phenyl)acrylamide]: the IC50 with MM1S cells, with Z138 cells and with 3T3 cells was > 30 µM throughout.

With `NC(=O)/C(=C/c1ccnc(-c2cc(C(F)(F)F)cc(C(F)(F)F)c2)n1)c1cnc(Cl)nc1` [Compound 149, (E)-3-(2-(3,5-bis(trifluoromethyl)phenyl)pyrimidin-4-yl)-2-(2-chloropyrimidin-5-yl)acrylamide], the figures for the IC50 in the test with MM1S cells, in the test on Z138 cells and in the test on 3T3 cells were 0.1 to 5 µM, 0.1 to 5 µM and > 30 µM, respectively.

On to `N#Cc1cncc(/C(=C\c2ccnc(-c3cc(C(F)(F)F)cc(C(F)(F)F)c3)n2)C(N)=O)c1` [Compound 119, (E)-3-(2-(3,5-bis(trifluoromethyl)phenyl)pyrimidin-4-yl)-2-(5-cyanopyridin-3-yl)acrylamide], for which the values for the concentration for half-maximal inhibition (IC50) in the test with MM1S cells, in the test with Z138 cells and with 3T3 cells were 0.1 to 5 µM, 0.1 to 5 µM and > 30 µM, respectively.

With `NC(=O)/C(=C/c1ccnc(-c2cc(C(F)(F)F)cc(C(F)(F)F)c2)n1)c1cccc(S(=O)(=O)N2CCOCC2)c1` [Compound 129, (E)-3-(2-(3,5-bis(trifluoromethyl)phenyl)pyrimidin-4-yl)-2-(3-(morpholinosulfonyl)phenyl)acrylamide], the IC50 in the test with MM1S cells, in the test on Z138 cells and in the test on 3T3 cells was > 30 µM each time.

In the case of `NC(=O)/C(=C/c1ccnc(-c2cc(C(F)(F)F)cc(C(F)(F)F)c2)n1)c1cc(F)nc(F)c1` [Compound 152, (E)-3-(2-(3,5-bis(trifluoromethyl)phenyl)pyrimidin-4-yl)-2-(2,6-difluoropyridin-4-yl)acrylamide], the figures for the IC50 in the test with MM1S cells, with Z138 cells and in the test with 3T3 cells were 0.1 to 5 µM, 0.1 to 5 µM and > 30 µM, respectively.

For the molecule `CCOC(=O)/C=C/c1cncc(-c2cc(C(F)(F)F)cc(C(F)(F)F)c2)n1` [Compound 101, ethyl (E)-3-(6-(3,5-bis(trifluoromethyl)phenyl)pyrazin-2-yl)acrylate], the IC50 with MM1S cells, with Z138 cells and in the test on 3T3 cells was > 30 µM throughout.

Turning to `COC(=O)/C(Br)=C/c1cncc(-c2cc(C(F)(F)F)cc(C(F)(F)F)c2)n1` [Compound 115, methyl (Z)-3-(6-(3,5-bis(trifluoromethyl)phenyl)pyrazin-2-yl)-2-bromoacrylate], the half-inhibitory concentration (IC50) in the test on MM1S cells lay within 0.1 to 5 µM; with Z138 cells, 0.1 to 5 µM; with 3T3 cells, 5 to 30 µM.

As to `NC(=O)/C(=C/c1ccnc(-c2cc(C(F)(F)F)cc(C(F)(F)F)c2)n1)c1ccc(S(=O)(=O)N2CC(F)(F)C2)cc1` [Compound 130, (E)-3-(2-(3,5-bis(trifluoromethyl)phenyl)pyrimidin-4-yl)-2-(4-((3,3-difluoroazetidin-1-yl)sulfonyl)phenyl)acrylamide], the values for the IC50 with MM1S cells, in the test on Z138 cells and in the test on 3T3 cells were 5 to 30 µM, > 30 µM and > 30 µM, respectively.

On to `NC(=O)/C(=C\c1ccnc(-c2cc(C(F)(F)F)cc(C(F)(F)F)c2)n1)c1cncnc1` [Compound 107, (Z)-3-(2-(3,5-bis(trifluoromethyl)phenyl)pyrimidin-4-yl)-2-(pyrimidin-5-yl)acrylamide], for which the IC50 is 0.1 to 5 µM with MM1S cells, 5 to 30 µM with Z138 cells and > 30 µM with 3T3 cells.

In the case of `CCOC(=O)C(Br)C(Br)c1ccnc(-c2cc(C(F)(F)F)cc(C(F)(F)F)c2)n1` (centres unmarked) [Compound 106, ethyl 3-(2-(3,5-bis(trifluoromethyl)phenyl)pyrimidin-4-yl)-2,3-dibromopropanoate], the results for the IC50 in the test on MM1S cells, in the test on Z138 cells and with 3T3 cells were 0.1 to 5 µM, 0.1 to 5 µM and > 30 µM, respectively.

Regarding `NC(=O)/C(=C/c1ccnc(-c2cc(C(F)(F)F)cc(C(F)(F)F)c2)n1)c1cccc(S(=O)(=O)N2CCC(F)(F)CC2)c1` [Compound 138, (E)-3-(2-(3,5-bis(trifluoromethyl)phenyl)pyrimidin-4-yl)-2-(3-((4,4-difluoropiperidin-1-yl)sulfonyl)phenyl)acrylamide], the results for the IC50 with Z138 cells and in the test with 3T3 cells were 0.1 to 5 µM and > 30 µM, respectively.

As for `NC(=O)/C(=C\c1nccc(-c2cc(C(F)(F)F)cc(C(F)(F)F)c2)n1)c1cncnc1` [Compound 110, (Z)-3-(4-(3,5-bis(trifluoromethyl)phenyl)pyrimidin-2-yl)-2-(pyrimidin-5-yl)acrylamide], the 50% inhibitory concentration (IC50) with MM1S cells, with Z138 cells and with 3T3 cells was > 30 µM in each case.

As to `NC(=O)/C(=C/c1ccnc(-c2cc(C(F)(F)F)cc(C(F)(F)F)c2)n1)c1cc2ccccc2s1` [Compound 137, (Z)-2-(benzo[b]thiophen-2-yl)-3-(2-(3,5-bis(trifluoromethyl)phenyl)pyrimidin-4-yl)acrylamide], the concentration for half-maximal inhibition (IC50) is 0.1 to 5 µM with MM1S cells, 0.1 to 5 µM in the test on Z138 cells and > 30 µM in the test with 3T3 cells.

Regarding `NC(=O)/C(=C\c1cncc(-c2cc(C(F)(F)F)cc(C(F)(F)F)c2)n1)c1cncnc1` [Compound 104, (Z)-3-(6-(3,5-bis(trifluoromethyl)phenyl)pyrazin-2-yl)-2-(pyrimidin-5-yl)acrylamide], the IC50 with MM1S cells, in the test on Z138 cells and in the test on 3T3 cells was > 30 µM throughout.

Take `NC(=O)/C(=C/c1ccnc(-c2cc(C(F)(F)F)cc(C(F)(F)F)c2)n1)c1cccc(S(=O)(=O)N2CC(F)(F)C2)c1` [Compound 139, (E)-3-(2-(3,5-bis(trifluoromethyl)phenyl)pyrimidin-4-yl)-2-(3-((3,3-difluoroazetidin-1-yl)sulfonyl)phenyl)acrylamide]: the IC50 in the test on MM1S cells and in the test on Z138 cells was > 30 µM throughout.

With `N#Cc1ccccc1/C(=C\c1ccnc(-c2cc(C(F)(F)F)cc(C(F)(F)F)c2)n1)C(N)=O` [Compound 154, (E)-3-(2-(3,5-bis(trifluoromethyl)phenyl)pyrimidin-4-yl)-2-(2-cyanophenyl)acrylamide], the IC50 in the test with MM1S cells was 0.1 to 5 µM; in the test on Z138 cells, > 30 µM.

As to `NC(=O)/C(=C/c1ccnc(-c2cc(C(F)(F)F)cc(C(F)(F)F)c2)n1)c1ccc(Cl)c(F)c1` [Compound 133, (E)-3-(2-(3,5-bis(trifluoromethyl)phenyl)pyrimidin-4-yl)-2-(4-chloro-3-fluorophenyl)acrylamide], the IC50 in the test on Z138 cells was < 0.1 µM; in the test on 3T3 cells, > 30 µM.

The values above are taken from US10709706B2, “Nuclear transport modulators and uses thereof” (Karyopharm Therapeutics Inc., priority 2015, dated 2020).
